Assay results from the supplement of paper PMC8967900.

Key:
Experiment in all cases: selective drug sensitivity score (sDSS, relative to normal bone marrow) (sDSS (score)); higher = more potent and effective on the cell line relative to normal bone marrow cells
Conditions in all cases: 72 h
P30-OHKUBO = tested on: P30-OHKUBO
COG-LL-355h = tested on: COG-LL-355h
LC4-1 = tested on: LC4-1
TANOUE = tested on: TANOUE
COG-LL-332h = tested on: COG-LL-332h
TMD5 = tested on: TMD5
CCRF-CEM = tested on: CCRF-CEM
JURKAT = tested on: JURKAT
P12-ICHIKAWA = tested on: P12-ICHIKAWA
PF-382 = tested on: PF-382
KASUMI-9 = tested on: KASUMI-9
RPMI-8402 = tested on: RPMI-8402
KARPAS-45 = tested on: KARPAS-45
ALL-SIL = tested on: ALL-SIL
CCRF-HSB2 = tested on: CCRF-HSB2
NALM-6 = tested on: NALM-6
COG-LL-394h = tested on: COG-LL-394h
COG-LL-317 = tested on: COG-LL-317
PEER = tested on: PEER
COG-LL-402h = tested on: COG-LL-402h
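Further: ALL cell lines in 384-well plates, five doses spanning 10,000-fold, each plate scaled between vehicle and 100 µmol/L benzalkonium chloride controls, sDSS an adapted area-under-curve metric.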

Row | SMILES | selective drug sensitivity score (P30-OHKUBO) | selective drug sensitivity score (COG-LL-355h) | selective drug sensitivity score (LC4-1) | selective drug sensitivity score (TANOUE) | selective drug sensitivity score (COG-LL-332h) | selective drug sensitivity score (TMD5) | selective drug sensitivity score (CCRF-CEM) | selective drug sensitivity score (JURKAT) | selective drug sensitivity score (P12-ICHIKAWA) | selective drug sensitivity score (PF-382) | selective drug sensitivity score (KASUMI-9) | selective drug sensitivity score (RPMI-8402) | selective drug sensitivity score (KARPAS-45) | selective drug sensitivity score (ALL-SIL) | selective drug sensitivity score (CCRF-HSB2) | selective drug sensitivity score (NALM-6) | selective drug sensitivity score (COG-LL-394h) | selective drug sensitivity score (COG-LL-317) | selective drug sensitivity score (PEER) | selective drug sensitivity score (COG-LL-402h)
1 | CN(C)C(=O)c1ccc(S(=O)(=O)c2ccc(NC(=O)[C@@](C)(O)C(F)(F)F)c(Cl)c2)cc1 [AZD7545] (top concentration 10000 nM) | 0.6 | -0.2 | 1.6 | 3.4 | 0.5 | -0.2 | 0 | 7 | 2.7 | 3.1 | -0.2 | 5.7 | 2.9 | 3.4 | 1.3 | 3.7 | 4.1 | 0.7 | 6.2 | -0.2
2 | COc1cc(C)c(/C=C/C(C)=C/C=C/C(C)=C/C(=O)O)c(C)c1C [Acitretin] (top concentration 10000 nM) | -1.6 | 2.3 | -0.9 | -1.6 | 0 | -1.6 | -1 | -1.2 | -0.8 | -1.4 | 2.9 | -1.6 | 0.2 | -1.6 | 0 | -1.5 | -1.6 | -0.5 | -0.6 | -0.1
3 | CCC1(c2ccc(N)cc2)CCC(=O)NC1=O (stereo not given) [Aminoglutethimide] (top concentration 10000 nM) | 0 | 0.6 | 0 | 0 | 0 | 0 | 0 | 0 | 0 | 0 | 0.6 | 0 | 0 | 0 | 0 | 0 | 0 | 0 | 0 | 0
4 | CNC(=O)c1ccc(N2C(=S)N(c3cnc(C#N)c(C(F)(F)F)c3)C(=O)C23CCC3)cc1F [Apalutamide] (top concentration 10000 nM) | 0 | 0 | 0 | 0.1 | 0 | 0 | 0 | 0 | 0 | 0 | 0 | 0 | 0 | 0 | 0 | 0 | 0 | 0 | 0.1 | 0.2
5 | N#CC1(c2ccc(NC(=O)c3cccnc3NCc3ccncc3)cc2)CCCC1 [Apatinib] (top concentration 10000 nM) | 0 | 0 | 1.2 | 0 | 0 | 0 | 0 | 0 | 0 | 0 | 0 | 0.1 | 0 | 0 | 0.3 | 0.4 | 0 | 0 | 2.2 | 0
6 | Cc1nc2cccc(N)c2c(=O)n1C1CCC(=O)NC1=O (stereo not given) [Avadomide (CC122)] (top concentration 10000 nM) | 5.9 | 2.6 | 3.5 | 0 | 0 | 3.5 | 0.9 | 0 | 0 | 0 | 10.7 | 0 | 0 | 0 | 0 | 0 | 0 | 0 | 0 | 0.2
7 | Nc1nc(Nc2ccc3c(c2)CC[C@@H](N2CCCC2)CC3)nn1-c1cc2c(nn1)-c1ccccc1CCC2 [BGB324] (top concentration 10000 nM) | 5.82 | 3.82 | 1.52 | -3.88 | 2.22 | -2.98 | 1.92 | 1.02 | 0.02 | 0.32 | 5.22 | 2.92 | 1.92 | 3.12 | 2.32 | 1.92 | 2.82 | -0.38 | 4.42 | 2.32
8 | CC1(C)C(C(=O)Nc2ccc(S(=O)(=O)c3ccc(NC(=O)C4C(C)(C)C4(C)C)cc3)cc2)C1(C)C [BRD7116] (top concentration 10000 nM) | 4.46 | -0.24 | 1.76 | -0.24 | -0.24 | 0.66 | 1.16 | 1.76 | 0.66 | 0.36 | 4.46 | 0.96 | -0.04 | -0.24 | 0.16 | 1.96 | 3.16 | -0.24 | -0.14 | -0.24
9 | CCS(=O)(=O)N1CC(CC#N)(n2cc(-c3ncnc4[nH]ccc34)cn2)C1 [Baricitinib] (top concentration 2500 nM) | -1.94 | -1.94 | -1.94 | -1.94 | 0.16 | -1.94 | -1.94 | -1.94 | -1.94 | -1.94 | -1.94 | -1.94 | -1.94 | 4.66 | -1.94 | -1.94 | -1.94 | -1.94 | 0.96 | -1.94
10 | CC(O)(CS(=O)(=O)c1ccc(F)cc1)C(=O)Nc1ccc(C#N)c(C(F)(F)F)c1 (stereo not given) [Bicalutamide] (top concentration 10000 nM) | -1.68 | 2.62 | -1.68 | -1.28 | 0.72 | -0.88 | -0.38 | 0.42 | -0.88 | -1.38 | 0.52 | 1.02 | -0.88 | -1.68 | -1.28 | 2.02 | -0.18 | 0.52 | -0.18 | -1.68
11 | COc1cc(Nc2c(C#N)cnc3cc(OCCCN4CCN(C)CC4)c(OC)cc23)c(Cl)cc1Cl [Bosutinib] (top concentration 10000 nM) | 3.56 | 1.86 | 0.96 | -7.74 | 6.56 | 9.06 | -0.74 | -0.74 | 0.96 | 4.76 | 4.06 | 1.56 | 2.46 | 26.7 | 27 | -1.24 | 1.16 | -2.64 | 9.16 | 5.66
12 | Cc1cc2c(F)c(Oc3ncnn4cc(OC[C@@H](C)O)c(C)c34)ccc2[nH]1 [Brivanib] (top concentration 1000 nM) | -0.04 | -0.04 | -0.04 | -0.04 | 0.16 | -0.04 | -0.04 | 1.46 | 1.56 | 0.06 | -0.04 | 0.46 | 0.06 | -0.04 | -0.04 | -0.04 | -0.04 | -0.04 | -0.04 | -0.04
13 | Cc1ccc(-c2cc(C(F)(F)F)nn2-c2ccc(S(N)(=O)=O)cc2)cc1 [Celecoxib] (top concentration 10000 nM) | -0.06 | -0.06 | 1.24 | -0.06 | 0.34 | 1.34 | -0.06 | 0.14 | 0.24 | 0.24 | -0.06 | 0.54 | 0.34 | 0.54 | -0.06 | -0.06 | -0.06 | -0.06 | 0.94 | -0.06
14 | N.N.[Cl][Pt][Cl] [Cisplatin] (top concentration 100000 nM) | 16.7 | 5.84 | 17.7 | -3.16 | 19.4 | 1.24 | 15.3 | 13.1 | 12.7 | 10.2 | 12.3 | 4.04 | 5.84 | 8.94 | 21 | 0.64 | 0.54 | 23.2 | 2.64 | 1.54
15 | Cc1c2oc3c(C)ccc(C(=O)N[C@@H]4C(=O)N[C@H](C(C)C)C(=O)N5CCC[C@H]5C(=O)N(C)CC(=O)N(C)[C@@H](C(C)C)C(=O)O[C@@H]4C)c3nc-2c(C(=O)N[C@@H]2C(=O)N[C@H](C(C)C)C(=O)N3CCC[C@H]3C(=O)N(C)CC(=O)N(C)[C@@H](C(C)C)C(=O)O[C@@H]2C)c(N)c1=O [Dactinomycin] (top concentration 1000 nM) | 19.1 | 8.54 | 17.5 | -11.2 | 14.5 | 7.84 | 7.04 | 2.64 | 0.44 | 3.64 | 19.4 | 1.54 | 8.44 | 8.04 | 15.7 | 12.5 | 12.2 | 20.7 | 0.64 | 15.2
16 | O=C(O)CCCCC(CCSCc1ccccc1)SCc1ccccc1 (stereo not given) [Devimistat (CPI-613)] (top concentration 10000 nM) | 0 | 2.4 | 2.1 | 1.8 | 0 | 0 | 0 | 0 | 0 | 0 | 0 | 0 | 0 | 0 | 0.3 | 0 | 0 | 0 | 0.1 | 0
17 | CC(=O)O[C@@]12CO[C@@H]1C[C@H](O)[C@@]1(C)C(=O)[C@H](O)C3=C(C)[C@@H](OC(=O)[C@H](O)[C@@H](NC(=O)OC(C)(C)C)c4ccccc4)C[C@@](O)([C@@H](OC(=O)c4ccccc4)[C@H]21)C3(C)C [Docetaxel] (top concentration 1000 nM) | 20.4 | 5.1 | 22.9 | -11.8 | 22.2 | 8.5 | 19.8 | 17.1 | 19.1 | 10.5 | 21 | 13.2 | 17.1 | 20.6 | 19.3 | 14.1 | 8.5 | 20.6 | 22.3 | 15
18 | Cc1ccc(-n2nc(C(C)(C)C)cc2NC(=O)Nc2ccc(OCCN3CCOCC3)c3ccccc23)cc1 [Doramapimod] (top concentration 10000 nM) | 4.26 | 1.26 | 1.76 | 1.16 | 4.36 | -0.14 | -0.24 | 1.16 | 0.26 | 0.46 | 4.56 | 1.96 | -0.24 | -0.24 | 2.76 | -0.24 | 2.16 | 10.9 | 1.86 | 2.66
